Measurements reported in patent US20250313544A1, “INHIBITORS OF GLUTATHIONE S-TRANSFERASE ZETA 1 (GSTZ1) AND METHODS OF USE” (H. LEE MOFFITT CANCER CENTER AND RESEARCH INSTITUTE, INC., priority 2022, published 2025).

Columns and labels:
[1] = test system: H1792 cells harboring KRAS G12C; experiment: Cell viability assay (CellTiter-Glo) in H1792 cells; assay type: cell-based, human
Protocol: (§1) Cells were seeded in Corning 384-well black walled/clear bottom microplates with a density of 1,000 cells/well and treated with indicated drugs and concentrations following cell attachment for 24 h. After 72 h or 96 h, as indicated, cell viability was evaluated with CellTiter-Glo (Promega, Madison, WI) according to manufacturer's recommendations. An M5 Spectramax plate reader (Molecular devices) was used to read the plates with 500 ms integration. Data was processed and analyzed using Excel and GraphPad Prism 9.0.

H1792 LUAD cells = experiment: Chemical proteomics target profiling in live H1792 cells (label-free LC-MS/MS, comparison with control probe 22 and panel-wide cross-comparison); assay type: binding, human; conditions: for number of probe-enriched target candidates over control probe 22 (promiscuity): log2 ratio vs. control probe >2.32; for prominent target protein predominantly enriched by the probe: compared to control probe and probe panel; for other proteins also enriched by the probe: log2 ratio>2.32 and enrichment score>2
Protocol: (§2) Cells were grown in 10 cm dishes to ˜90% confluence at the time of treatment. Cells were carefully washed twice with Dulbecco's phosphate buffered saline (DPBS) and replenished with fresh serum-free RPMI 1640 media containing indicated probes ([…]), competitors, or DMSO. Without competitors, cells were incubated with probes for 30 min at 37° C. and then exposed to 365 nm UV light for 15 min on ice. With competitors, cells were pre-treated with competitors for 30 min and photoactivated for 15 min. Probes were then added to cells for an additional 30 min incubation. For no UV experiments, cells were incubated for 15 min under ambient light. Cells were harvested in cold DPBS and pellets were washed with cold DPBS (2 X). Pellets were either directly processed or kept frozen at −80° C. until use. Cells pellets were lysed for 30 min in cold DPBS (100-300 uL) per culture dish supplemented with 1% NP-40, followed by sonication (5 pulses, 4 s on, 20 s off, output setting=4). Lysates were centrifuged at 20,817×g for 20 min, and supernatant (soluble proteome) was used for further processing. Protein concentrations were determined using Bradford assays.
Protein pellets were transferred to 5 mL microcentrifuge tubes and then resuspended in a freshly-prepared solution of proteomics-grade urea (320 μL, 6 M Urea in DPBS) containing 80 μL of 10% SDS and dissolved by sonication. To each solution, 4 mL DPBS was added (final conc: 0.2%, total volume) and incubated with pre-equilibrated NeutrAvidin agarose resin (100 μL 1:1 slurry, Pierce, Cat. 29201) for 2 hrs at ambient temperature on a rotator. The NeutrAvidin beads were collected by centrifugation (1,400×g, 2 min) and sequentially washed with 0.2% SDS in DPBS (2×2 mL), detergent-free DPBS (2×2 mL), and 50 mM ammonium bicarbonate (AMBIC, 2×2 mL). Beads were resuspended with 200 μL 50 mM AMBIC and incubated with TCEP 50 μL (100 mM in 50 mM AMBIC) for 30 min at 37° C. Iodoacetamide (50 μL of 200 mM in 50 mM AMBIC) was added and incubated for 30 min at ambient temperature. The beads were again washed with 2×1 mL 50 mM AMBIC and resuspended in 100 μL of fresh 50 mM AMBIC and treated with 2 μg of sequencing grade modified trypsin (Promega, #V5111) at 37° C. overnight. These samples were acidified with formic acid (final conc: 5%) and centrifuged (1,000×g, 2 min). The supernatant was collected and desalted through ZIPTIPs, and the desalted peptide mixture were dried in vacuum and reconstituted with HPLC buffer (2% acetonitrile, 0.1% formic acid) for LC-MS/MS analysis. Tryptic peptides of avidin were excluded from MS2 analysis to maximize detection of the protein targets (Table S7). Samples were analyzed using LC-MS/MS after being spiked with 50 fmol/uL PRTC standards (88320, Pierce Retention Time Calibration Mixture, Thermo Fisher, MA). A nanoflow ultra high performance liquid chromatograph and nanoelectrospray orbitrap mass spectrometer (RSLCnano and Q Exactive plus, Thermo) were used for LC-MS/MS. The sample was loaded onto a pre-column (C18 PepMap100, 2 cm length×100 μm ID packed with C18 reversed-phase resin, 5 μm particle size, 100 Å pore size) and washed for 8 minutes with aqueous 2% acetonitrile and 0.1% formic acid. Trapped peptides were eluted onto the analytical column, (C18 PepMap100, 25 cm length×75 μm ID, 2 μm particle size, 100 Å pore size, Thermo). A 120-minute gradient was programmed as: 95% solvent A (aqueous 2% acetonitrile+0.1% formic acid) for 8 minutes, solvent B (aqueous 90% acetonitrile+0.1% formic acid) from 5% to 38.5% in 90 minutes, then solvent B from 50% to 90% B in 7 minutes and held at 90% for 5 minutes, followed by solvent B from 90% to 5% in 1 minute and re-equilibration for 10 minutes using a flow rate of 300 nl/min. Spray voltage was 1900 V. Capillary temperature was 275° C. S lens RF level was set at 40. Top 16 tandem mass spectra were collected in a data-dependent manner. The resolution for MS and MS/MS were set at 70,000 and 17,500 respectively. […]

H1792 cells [2] = experiment: In-gel fluorescence analysis of probe-labeled proteins after photocrosslinking in live H1792 cells; assay type: binding, human; conditions: compared to vehicle
Protocol: as §2
To 1 mg of protein, were added a mixture of TBTA (Tris((1-benzyl-4-triazolyl)methyl)amine, 60 μL/sample, 1.7 mM in 1:4 DMSO: t-BuOH stock), CuSO4 (20 μL/sample, 50 mM in H2O), TCEP (tris(2-carboxyethyl) phosphine, 20 μL/sample, 50 mM in DPBS, made fresh) and Biotin-Azide conjugate (10 μL/sample, 10 mM in DMSO stock). Each sample was rotated at room temperature for 2 h. To each resultant a cold 4:1 mixture (600 μL) of methanol (MeOH)/chloroform (CHCl3) was added followed by cold PBS (100 μL) on ice. The resulting cloudy mixture was centrifuged (5,000×g, 10 min, 4° C.) to fractionate the protein interface from the organic and aqueous solvent layers. A MeOH:CHCl3 (1:1, 1 mL, 2×) mixture was used to wash protein discs thoroughly. Protein discs were sonicated in cold 4:1 MeOH:CHCl3 (2 mL) mixture. The remaining precipitate was pelleted by centrifugation (5,000×g, 10 min, 4° C.). […] Gels were subjected to fluorescence imaging or Western Blotting.

[3] = test system: drug-refractory NSCLC cells (H1792, H520, HCC366); experiment: Cell viability assay (CellTiter-Glo) across drug-refractory NSCLC cell lines; assay type: cell-based, human; conditions: single agent
Protocol: as §1

[4] = test system: H520 cells harboring amplified FGFR1; experiment: Cell viability assay (CellTiter-Glo) in H520 cells; assay type: cell-based, human
Protocol: as §1

H1792 cells [5] = experiment: Protein tyrosine reactivity profiling (SuTEx probe HHS-482, LC-MS/MS) in H1792 cells; assay type: cell-based, human; conditions: 24 h treatment, log2 ratio ≤−0.585 or ≥0.585, p<0.05 vs. vehicle
Protocol: Cell lysates were prepared and diluted to 2 mg/mL in PBS. Samples were treated with HHS-482 (a SuTEx probe) at 25 μM for 1 h at room temperature. Labeled proteomes were subjected to CuAAC conjugation with Biotin-Azide conjugate (200 μM) by mixing with TCEP (1 mM), TBTA (100 μM), and CuSO4 (1 mM). After 1 h incubation, resulting mixtures were subjected to MeOH: CHCl3 extraction as described above. Protein discs were reconstituted with urea buffer supplemented with 10% SDS. Samples were processed with NeutrAvidin beads, on-bead digestion with trypsin, and ZIPTIP purification as described above. Samples were dried in vacuum and prepared for LC-MS/MS analysis.

C=CC(=O)N1CCN(c2ncnc3c(F)c(-c4c(O)cccc4F)c(Cl)cc23)CC1 [ARS1620, reference compound]
cell response to targeted drug ([1]; H1792, KRAS^G12C mutation): poorly responded

C#CCCC1(CCC(=O)NC2CC(Oc3nccn4nc(C)cc34)CC(C)(C)C2)N=N1 (stereo not drawn) [Probe 2, 3-(3-(but-3-yn-1-yl)-3H-diazirin-3-yl)-N-(3,3-dimethyl-5-((2-methylpyrazolo[1,5-a]pyrazin-4-yl)oxy)cyclohexyl)propanamide]
number of probe-enriched target candidates over control probe 22 (promiscuity) (H1792 LUAD cells): most promiscuous

C#CCCC1(CCC(=O)N2CCC(Oc3ncc(C(F)(F)F)cc3Cl)C2)N=N1 (stereo not drawn) [Probe 5, 3-(3-(but-3-yn-1-yl)-3/-diazirin-3-yl)-1-(3-((3-chloro-5-(trifluoromethyl)pyridin-2-yl)oxy)pyrrolidin-1-yl)propan-1-one]
proteome labeling by probe (in-gel fluorescence) (H1792 cells [2]): efficiently labeled a wide range of proteins | prominent target protein predominantly enriched by the probe (H1792 LUAD cells): ME3 | number of probe-enriched target candidates over control probe 22 (promiscuity) (H1792 LUAD cells): most promiscuous | other proteins also enriched by the probe (H1792 LUAD cells): FARSA, PTGR1, ME1, YIF1A, and SGPL1 | cellular activity of probes (cell viability) [3]: displayed activity toward multiple tested cell lines

C#CCCC1(CCC(=O)N2CCN(Cc3nc(-c4cccs4)cs3)CC2)N=N1 [Probe 6, 3-(3-(but-3-yn-1-yl)-3H-diazirin-3-yl)-1-(4-((4-(thiophen-2-yl)thiazol-2-yl)methyl)piperazin-1-yl)propan-1-one]
prominent target protein predominantly enriched by the probe (H1792 LUAD cells): NDUFB11 | number of probe-enriched target candidates over control probe 22 (promiscuity) (H1792 LUAD cells): most promiscuous | other proteins also enriched by the probe (H1792 LUAD cells): NDUFB10, AK3, and LTA4H

C#CCCC1(CCC(=O)Nc2ccc3c(c2)N(CC(C)C)C(=O)C(C)(C)CO3)N=N1 [Probe 7, 3-(3-(but-3-yn-1-yl)-3H-diazirin-3-yl)-N-(5-isobutyl-3,3-dimethyl-4-oxo-2,3,4,5-tetrahydrobenzo[b][1,4]oxazepin-7-yl)propanamide]
prominent target protein predominantly enriched by the probe (H1792 LUAD cells): MMGT1 | number of probe-enriched target candidates over control probe 22 (promiscuity) (H1792 LUAD cells): most promiscuous | cellular activity of probes (cell viability) [3]: displayed activity toward multiple tested cell lines

C#CCCC1(CCC(=O)N2CC(Nc3ncccn3)C2)N=N1 [Probe 18, 3-(3-(but-3-yn-1-yl)-3H-diazirin-3-yl)-1-(3-(pyrimidin-2-ylamino)azetidin-1-yl)propan-1-one]
number of probe-enriched target candidates over control probe 22 (promiscuity) (H1792 LUAD cells): few

C#CCCC1(CCC(=O)N2CCCCC2c2nnc(C(=O)OC)s2)N=N1 (stereo not drawn) [Probe 19, Methyl-5-(1-(3-(3-(but-3-yn-1-yl)-3H-diazirin-3-yl)propanoyl)piperidin-2-yl)-1,3,4-thiadiazole-2-carboxylate]
number of probe-enriched target candidates over control probe 22 (promiscuity) (H1792 LUAD cells): few

C#CCCC1(CCC(=O)N2CCCC2COc2nc3ccccc3cc2C#N)N=N1 (stereo not drawn) [Probe 20, 2-((1-(3-(3-(but-3-yn-1-yl)-3H-diazirin-3-yl)propanoyl)pyrrolidin-2-yl)methoxy)quinoline-3-carbonitrile]
cellular activity of probes (cell viability) [3]: displayed activity toward multiple tested cell lines

C#CCCC1(CCC(=O)NCCCNC(=O)c2ccc3c4c(ncnc24)-c2ccccc2C3=O)N=N1 [Probe 21, N-(3-(3-(3-(but-3-yn-1-yl)-3H-diazirin-3-yl)propanamido)propyl)-7-oxo-7H-benzo[e]perimidine-4-carboxamide]
cellular activity (cell viability) ([4]; H520 cells, single agent): highly active | cellular activity (cell viability) ([1]; H1792 cells, single agent): highly active | proteome labeling by probe (in-gel fluorescence) (H1792 cells [2]): efficiently labeled a wide range of proteins | number of candidate target proteins identified for the probe (H1792 LUAD cells): 5 | cellular activity of probes (cell viability) [3]: displayed activity toward multiple tested cell lines | relative potency among active probes (cell viability) [3]: more potent

CCN1CCN(c2ccc(Nc3cc(N(C)C(=O)Nc4c(Cl)c(OC)cc(OC)c4Cl)ncn3)cc2)CC1 [infigratinib, reference compound]
cell response to targeted drug ([4]; H520, FGFR1 overexpression): only partially respond

C=CC(=O)N1CCN(c2nc(=O)n(-c3c(C)ccnc3C(C)C)c3nc(-c4c(O)cccc4F)c(F)cc23)[C@@H](C)C1 [sotorasib]
number of proteins with significantly altered Tyr reactivity (H1792 cells [5]): 106 proteins
